Legend:
Assay type in all cases: in vivo
[1] = test system: G93A high expressor line of transgenic male ALS mice with a B6SJL background; assay: Survival of transgenic ALS mice, CyPPA given P5 to P20 (Example 1); conditions: CyPPA 0.014 μg/kg daily IP for 16 days (P5-P20)
Description: (§1) Thus, the effect of SK channel activators on survival and motor function of the G93A high expressor line of transgenic male ALS mice with a B6SJL background (hereinafter, “transgenic ALS mice”) was characterized. The transgenic ALS mice carry a mutation of the superoxide dismutase 1 gene; as a result, the transgenic ALS mice develop a neurodegenerative disease which closely mimics ALS in humans. In this experiment, CyPPA (n=13) or vehicle solution (i.e., saline+11% DMSO, n=12) was administered early to the transgenic ALS mice for sixteen (16) days (between ages P5 and P20) via daily intraperitoneal (i.e., IP) injection. CyPPA was administered at a dose of 0.014 μg/kg in both experiments.
(§2) In this experiment, the effect of CyPPA on survival of the transgenic ALS mice was assessed by determining when the transgenic ALS mice met end point criteria, i.e., full paralysis of both hind limbs and failing to right themselves 30 seconds after being turned on their backs. Additionally, the effect of CyPPA on motor function of the transgenic ALS mice was assessed by daily measuring from the age of P85 to the end stage using the rotarod machine. More specifically, the transgenic ALS mice were placed on a rotating rod for four minutes at a speed of 5 rotations per minute (i.e., RPM). The speed was increased to 25 RPM and the transgenic ALS mice were deemed unable to complete the task if they could complete only five percent (i.e., 12 seconds) of the task (i.e., the end stage). Rotarod performance was assessed to detect onset of symptoms associated with the neurodegenerative disease mimicking ALS in humans in the transgenic ALS mice and/or to monitor disease progression in the transgenic ALS mice, such as, e.g., via characterizing the rate of loss of motor function.

[2] = test system: G93A high expressor line of transgenic male ALS mice with a B6SJL background; assay: Rotarod motor function of transgenic ALS mice, CyPPA given P5 to P20 (Example 1); conditions: CyPPA 0.014 μg/kg daily IP for 16 days (P5-P20)
Description: as §1, §2

[3] = test system: G93A high expressor line of transgenic male ALS mice with a B6SJL background; assay: Rotarod motor function of transgenic ALS mice, CyPPA given at ALS onset P90 to P96 (Example 2); conditions: CyPPA 0.014 μg/kg daily IP for 7 days (P90-P96); 92 to 105 and 112 to 119 days of age; FIG. 4
Description: Because symptoms of ALS in the transgenic ALS mice emerge around P90, the effect of administering CyPPA at P90 was characterized. Without being bound by the theory, it is believed that administration of CyPPA in the transgenic ALS mice at ALS onset would correlate to beginning treatment in humans upon diagnosis of ALS. In this experiment, CyPPA (n=14) or vehicle solution (i.e., saline+11% DMSO; n=14) was administered to the transgenic ALS mice for seven (7) days (between ages P90 and P96) via daily IP injection. CyPPA was administered at a dose of 0.014 μg/kg.
as §2, with “stage).” for “stage). Rotarod performance was assessed to detect onset of symptoms associated with the neurodegenerative disease mimicking ALS in humans in the transgenic ALS mice and/or to monitor disease progression in the transgenic ALS mice, such as, e.g., via characterizing the rate of loss of motor function.”

## Cc1cc(NC2CCCCC2)nc(-n2nc(C)cc2C)n1 [CyPPA]
[1]
  longer survival relative to control injected with vehicle solution: 10 days
[1]; p=0.0063
  increase in mean survival over control injected with vehicle solution: ~8%
[1]; vehicle 125.76 days, p=0.0063
  mean survival: 135.72 days
[2]; 122 to 126 days of age, FIG. 3
  time able to stay on the rotarod relative to vehicle control: significantly longer
[2]; FIG. 2
  able to complete the rotarod task longer than vehicle-injected mice: 5 days
[2]; FIG. 3, p=0.0017
  reduction of rate of decline in motor function relative to vehicle control: ~40%
[2]; FIG. 3 line A, vehicle slope 0.0349
  slope of decline in motor function (rotarod percent complete vs days of age): 0.0211
[3]
  average motor function (rotarod completion ratio) versus vehicle control: significantly better

From patent US20170299609A1, “TREATMENT OF AMYOTROPHIC LATERAL SCLEROSIS WITH SK CHANNEL ACTIVATORS” (Wright State University, priority 2016, published 2017)
